Test results from paper PMC8703412 (Pharmaceuticals, 2021).
Values after ≈ are worked out from the molar mass of the structure shown. Like-named read-outs stand apart in the source and are kept apart here.

Tests used:
[1] = tested on: Mycobacterium tuberculosis strain 331/88 (i.e., H37Rv); experiment: MIC micromethod in Šula's medium, drug-susceptible Mtb.; assay type: cell-based
[2] = tested on: Mycobacterium avium 330/88; experiment: MIC micromethod in Šula's medium, M. avium; assay type: cell-based
[3] = tested on: Mycobacterium kansasii 6509/96 (clinical isolate); experiment: MIC micromethod in Šula's medium, M. kansasii; assay type: cell-based
HepG2 cells = experiment: Cytotoxicity, CellTiter 96 (MTS) assay; settings: read-out: Cytotoxicity for HepG2 cells, IC50; 24 h incubation, 1–1000 µM
[4] = Cytotoxicity, CellTiter 96 (MTS) assay; settings: human, Cytotoxicity for HepG2 cells, IC50, 24 h incubation, 1–1000 µM
Mtb. H37Ra pMV261/pVV16 = experiment: microbe, parasite or virus in culture; assay type: cell-based, Mycobacterium tuberculosis; settings: for MIC: Mycobacterium tuberculosis, H37RA, 672 h, read-out: MIC H37Ra pMV261/pVV16
Mtb. H37Ra pMV261-inhA = experiment: microbe, parasite or virus in culture; assay type: cell-based, Mycobacterium tuberculosis; settings: for MIC: Mycobacterium tuberculosis, H37RA, 672 h, read-out: MIC H37Ra pMV261-inhA
[5] = tested on: Mtb. H37Ra pVV16-katGsmeg; experiment: microbe, parasite or virus in culture; assay type: cell-based; settings: Mycobacterium tuberculosis, 672 h, read-out: MIC H37Ra pVV16-katGsmeg
[6] = tested on: Mycobacterium tuberculosis strain 331/88 (i.e., H37Rv); set-up: method as in PMID 34198149; settings: cited from earlier work
[7] = tested on: Mycobacterium avium 330/88; set-up: method as in PMID 34198149; settings: cited from earlier work
[8] = tested on: Mycobacterium kansasii 6509/96 (clinical isolate); set-up: method as in PMID 34198149; settings: cited from earlier work
[9] = Mycobacterium tuberculosis, H37RV, 336 h, 14 d incubation, esters, Table 1, read-out: MIC Mtb. 331/88 14 d
[10] = Mycobacterium tuberculosis, H37RV, 504 h, 21 d incubation, esters, Table 1, read-out: MIC Mtb. 331/88 21 d
[11] = Mycobacterium avium, 330/88, 336 h, 14 d incubation, Table 1, read-out: MIC M. avium 330/88 14 d
[12] = Mycobacterium avium, 330/88, 504 h, 21 d incubation, Table 1, read-out: MIC M. avium 330/88 21 d
[13] = Mycobacterium kansasii, 168 h, 7 d incubation, Table 1, read-out: MIC M. kansasii 6509/96 7 d
[14] = Mycobacterium kansasii, 336 h, 14 d incubation, Table 1, read-out: MIC M. kansasii 6509/96 14 d
[15] = Mycobacterium kansasii, 504 h, 21 d incubation, Table 1, read-out: MIC M. kansasii 6509/96 21 d
[16] = Mycobacterium kansasii, 504 h, text summary over 7, 14 and 21 d, read-out: MIC for M. kansasii 6509/96
[17] = Mycobacterium tuberculosis, H37RV, Table 4, read-out: MIC H37Rv

## 5-Isopropyl-2-methylphenyl (E)-2-(2-isonicotinoylhydrazineylidene)propanoate [3k]
[1]; 14 d incubation, esters, Table 1, read-out: MIC Mtb. 331/88 14 d
  MIC: 0.25 µM
[1]; 21 d incubation, esters, Table 1, read-out: MIC Mtb. 331/88 21 d
  MIC: 0.25 µM
[2]; 14 d incubation, Table 1, read-out: MIC M. avium 330/88 14 d
  MIC: 500 µM
[2]; 21 d incubation, Table 1, read-out: MIC M. avium 330/88 21 d
  MIC: 1000 µM
[3]; 7 d incubation, Table 1, read-out: MIC M. kansasii 6509/96 7 d
  MIC: 8 µM
[3]; 14 d incubation, Table 1, read-out: MIC M. kansasii 6509/96 14 d
  MIC: 16 µM
[3]; 21 d incubation, Table 1, read-out: MIC M. kansasii 6509/96 21 d
  MIC: 16 µM
[3]; M. kansasii 6509/96
  fold lower activity than isomer 3l: 64 ×
HepG2 cells
  IC50: > 500 µM

## C/C(=N\NC(=O)c1ccncc1)C(=O)Oc1ccc2ccccc2c1 [3j, Naphthalen-2-yl (E)-2-(2-isonicotinoylhydrazineylidene)propanoate]
[1]; [9]
  MIC: 0.25 µM (≈ 0.0833 µg/mL)
[1]; [10]
  MIC: 0.25 µM (≈ 0.0833 µg/mL)
[2]; [11]
  MIC: 125 µM (≈ 41.7 µg/mL)
[2]; [12]
  MIC: 250 µM (≈ 83.3 µg/mL)
[3]; [13]
  MIC: 0.25 µM (≈ 0.0833 µg/mL)
[3]; [14]
  MIC: 0.25 µM (≈ 0.0833 µg/mL)
[3]; [15]
  MIC: 0.5 µM (≈ 0.167 µg/mL)
[3]; [16]
  MIC: ≤ 0.5 µM
other
  melting point: 116 to 117.2 °C
[4]
  IC50 at 24 h: 682 µM
HepG2 cells
  IC50: > 500 µM

## C/C(=N\NC(=O)c1ccncc1)C(=O)OCCn1c([N+](=O)[O-])cnc1C [3q, 2-(2-Methyl-5-nitro-1H-imidazol-1-yl)ethyl (E)-2-(2 isonicotinoylhydrazineylidene)propanoate]
[1]; [9]
  MIC: 0.25 µM (≈ 0.0901 µg/mL)
[1]; [10]
  MIC: 0.5 µM (≈ 0.18 µg/mL)
[2]; [11]
  MIC: 500 µM (≈ 180 µg/mL)
[2]; [12]
  MIC: 1000 µM (≈ 360 µg/mL)
[3]; [13]
  MIC: 2 µM (≈ 0.721 µg/mL)
[3]; [14]
  MIC: 4 µM (≈ 1.44 µg/mL)
[3]; [15]
  MIC: 4 µM (≈ 1.44 µg/mL)
other
  melting point: 123 to 125.7 °C
[4]
  IC50 at 24 h: > 1000 µM

## C/C(=N\NC(=O)c1ccncc1)C(=O)Sc1ccccc1 [3s, S-Phenyl (E)-2-(2-isonicotinoylhydrazineylidene)propanethioate]
[1]; [9]
  MIC: 0.25 µM (≈ 0.0748 µg/mL)
[1]; [10]
  MIC: 0.25 µM (≈ 0.0748 µg/mL)
[2]; [11]
  MIC: 250 µM (≈ 74.8 µg/mL)
[2]; [12]
  MIC: 250 µM (≈ 74.8 µg/mL)
[3]; [13]
  MIC: 1 µM (≈ 0.299 µg/mL)
[3]; [14]
  MIC: 2 µM (≈ 0.599 µg/mL)
[3]; [15]
  MIC: 4 µM (≈ 1.2 µg/mL)
other
  melting point: 186 to 187 °C
[4]
  IC50 at 24 h: 182 µM

## COc1ccc(OC(=O)/C(C)=N/NC(=O)c2ccncc2)cc1 [3d, 4-Methoxyphenyl (E)-2-(2-isonicotinoylhydrazineylidene)propanoate]
[1]; [9]
  MIC: 0.25 µM (≈ 0.0783 µg/mL)
[1]; [10]
  MIC: 0.25 µM (≈ 0.0783 µg/mL)
[2]; [11]
  MIC: 500 µM (≈ 157 µg/mL)
[2]; [12]
  MIC: 1000 µM (≈ 313 µg/mL)
[3]; [13]
  MIC: 4 µM (≈ 1.25 µg/mL)
[3]; [14]
  MIC: 8 µM (≈ 2.51 µg/mL)
[3]; [15]
  MIC: 8 µM (≈ 2.51 µg/mL)
other
  melting point: 169 to 172 °C
[4]
  IC50 at 24 h: > 1000 µM

## C/C(=N\NC(=O)c1ccncc1)C(=O)Oc1ccccc1 [3b, Phenyl (E)-2-(2-isonicotinoylhydrazineylidene)propanoate]
[1]; [9]
  MIC: 0.125 µM (≈ 0.0354 µg/mL)
[1]; [10]
  MIC: 0.25 µM (≈ 0.0708 µg/mL)
[2]; [11]
  MIC: > 250 µM
[2]; [12]
  MIC: > 250 µM
[3]; [13]
  MIC: 8 µM (≈ 2.27 µg/mL)
[3]; [14]
  MIC: 8 µM (≈ 2.27 µg/mL)
[3]; [15]
  MIC: 8 µM (≈ 2.27 µg/mL)
other
  melting point: 186 to 189 °C
[4]
  IC50 at 24 h: > 1000 µM

## C/C(=N\NC(=O)c1ccncc1)C(=O)Oc1cccc2ccccc12 [3i, Naphthalen-1-yl (E)-2-(2-isonicotinoylhydrazineylidene)propanoate]
[1]; [9]
  MIC: 0.25 µM (≈ 0.0833 µg/mL)
[1]; [10]
  MIC: 0.25 µM (≈ 0.0833 µg/mL)
[2]; [11]
  MIC: 125 µM (≈ 41.7 µg/mL)
[2]; [12]
  MIC: 250 µM (≈ 83.3 µg/mL)
[3]; [13]
  MIC: 0.25 µM (≈ 0.0833 µg/mL)
[3]; [14]
  MIC: 0.25 µM (≈ 0.0833 µg/mL)
[3]; [15]
  MIC: 0.25 µM (≈ 0.0833 µg/mL)
[3]; [16]
  MIC: ≤ 0.5 µM
other
  melting point: 181.1 to 182.5 °C
[4]
  IC50 at 24 h: 999 µM
HepG2 cells
  IC50: > 500 µM

## C/C(=N\NC(=O)c1ccncc1)C(=O)Oc1cccc2cccnc12 [3m, Quinolin-8-yl (E)-2-(2-isonicotinoylhydrazineylidene)propanoate]
[1]; [9]
  MIC: 0.25 µM (≈ 0.0836 µg/mL)
[1]; [10]
  MIC: 0.5 µM (≈ 0.167 µg/mL)
[1]; [17]
  MIC: 0.25 µM (≈ 0.0836 µg/mL)
[2]; [11]
  MIC: 32 µM (≈ 10.7 µg/mL)
[2]; Mycobacterium avium, 330/88, 504 h, 14 and 21 d, read-out: MIC for M. avium
  MIC: 32 to 64 µM (≈ 10.7 to 21.4 µg/mL)
[2]; [12]
  MIC: 64 µM (≈ 21.4 µg/mL)
[3]; [13]
  MIC: 2 µM (≈ 0.669 µg/mL)
[3]; [14]
  MIC: 4 µM (≈ 1.34 µg/mL)
[3]; [15]
  MIC: 4 µM (≈ 1.34 µg/mL)
Mtb. H37Ra pMV261/pVV16
  MIC H37Ra pMV261/pVV16: 0.25
  MIC: 0.25 µM (≈ 0.0836 µg/mL)
Mtb. H37Ra pMV261-inhA
  MIC H37Ra pMV261-inhA: 5 µM
  MIC: 5 µM (≈ 1.67 µg/mL)
[5]
  MIC: 0.125 µM (≈ 0.0418 µg/mL)
other
  melting point: 159.3 to 160.4 °C
[4]
  IC50 at 24 h: 247 µM

## C/C(=N\NC(=O)c1ccncc1)C(=O)Oc1ccc(F)cc1 [3f, 4-Fluorophenyl (E)-2-(2-isonicotinoylhydrazineylidene)propanoate]
[1]; [9]
  MIC: 0.25 µM (≈ 0.0753 µg/mL)
[1]; [10]
  MIC: 0.5 µM (≈ 0.151 µg/mL)
[2]; [11]
  MIC: 500 µM (≈ 151 µg/mL)
[2]; [12]
  MIC: 500 µM (≈ 151 µg/mL)
[3]; [13]
  MIC: 2 µM (≈ 0.603 µg/mL)
[3]; [14]
  MIC: 4 µM (≈ 1.21 µg/mL)
[3]; [15]
  MIC: 4 µM (≈ 1.21 µg/mL)
other
  melting point: 174.1 to 177.2 °C
[4]
  IC50 at 24 h: > 1000 µM

## C/C(=N\NC(=O)c1ccncc1)C(=O)Oc1ccc(Oc2ccccc2)cc1 [3e, 4-Phenoxyphenyl (E)-2-(2-isonicotinoylhydrazineylidene)propanoate]
[1]; [9]
  MIC: ≤ 0.125 µM
[1]; [10]
  MIC: 0.5 µM (≈ 0.188 µg/mL)
[2]; [11]
  MIC: 250 µM (≈ 93.8 µg/mL)
[2]; [12]
  MIC: 500 µM (≈ 188 µg/mL)
[3]; [13]
  MIC: 2 µM (≈ 0.751 µg/mL)
[3]; [14]
  MIC: 4 µM (≈ 1.5 µg/mL)
[3]; [15]
  MIC: 4 µM (≈ 1.5 µg/mL)
other
  melting point: 152.4 to 155 °C
[4]
  IC50 at 24 h: 551 µM
HepG2 cells
  IC50: > 500 µM

## C/C(=N\NC(=O)c1ccncc1)C(=O)Oc1cc(C(C)C)ccc1C [3l, 2-Isopropyl-5-methyphenyl (E)-2-(2-isonicotinoylhydrazineylidene)propanoate]
[1]; [9]
  MIC: 0.25 µM (≈ 0.0848 µg/mL)
[1]; [10]
  MIC: 0.25 µM (≈ 0.0848 µg/mL)
[1]; [17]
  MIC: 0.25 µM (≈ 0.0848 µg/mL)
[2]; [11]
  MIC: 125 µM (≈ 42.4 µg/mL)
[2]; [12]
  MIC: 250 µM (≈ 84.8 µg/mL)
[3]; [13]
  MIC: 0.25 µM (≈ 0.0848 µg/mL)
[3]; [14]
  MIC: 0.25 µM (≈ 0.0848 µg/mL)
[3]; [15]
  MIC: 0.25 µM (≈ 0.0848 µg/mL)
[3]; [16]
  MIC: ≤ 0.5 µM
Mtb. H37Ra pMV261/pVV16
  MIC H37Ra pMV261/pVV16: 0.25
  MIC: 0.25 µM (≈ 0.0848 µg/mL)
Mtb. H37Ra pMV261-inhA
  MIC H37Ra pMV261-inhA: 5 µM
  MIC: 5 µM (≈ 1.7 µg/mL)
[5]
  MIC: 0.05 to 0.125 µM (≈ 0.017 to 0.0424 µg/mL)
[4]
  IC50 at 24 h: > 1000 µM

## C/C(=N\NC(=O)c1ccncc1)C(=O)O [compound 2, (E)-2-(2-isonicotinoylhydrazineylidene)propanoic acid]
[6]; 14 d incubation
  MIC Mtb. 331/88 14 d: 1 µM (≈ 0.207 µg/mL)
[6]; 21 d incubation
  MIC Mtb. 331/88 21 d: 1 µM (≈ 0.207 µg/mL)
[7]; 14 d incubation
  MIC M. avium 330/88 14 d: 500 µM (≈ 104 µg/mL)
[7]; 21 d incubation
  MIC M. avium 330/88 21 d: >1000 µM
[8]; 7 d incubation
  MIC M. kansasii 6509/96 7 d: 8 µM (≈ 1.66 µg/mL)
[8]; 14 d incubation
  MIC M. kansasii 6509/96 14 d: 16 µM (≈ 3.32 µg/mL)
[8]; 21 d incubation
  MIC M. kansasii 6509/96 21 d: 16 µM (≈ 3.32 µg/mL)
